# Experimental data from ChEMBL document CHEMBL1132635, “N6,5'-Disubstituted adenosine derivatives as partial agonists for the human adenosine A3 receptor” (J Med Chem, 1999).
# Assays:
# Adenosine receptor A2a [1] = target: T1, Adenosine receptor A2a (Rattus norvegicus, UniProt P30543); assay: Displacement of [3H]-CGS- 21680 from Adenosine A2A receptor of rat striatal membranes; format: cell membranes, Membrane
# [2] = target: Adenosine receptors; A1 & A3 (Rattus norvegicus) (UniProt P25099+P28647); assay: Ratio of displacement of A1 receptor to A3 receptor; format: protein assay
# Adenosine receptor A1 = target: T2, Adenosine receptor A1 (Rattus norvegicus, UniProt P25099); assay: Displacement of [3H]DPCPX from rat cortical membranes Adenosine A1 receptor; format: cell membranes, Membrane
# T2 sequence (P25099 whole entry): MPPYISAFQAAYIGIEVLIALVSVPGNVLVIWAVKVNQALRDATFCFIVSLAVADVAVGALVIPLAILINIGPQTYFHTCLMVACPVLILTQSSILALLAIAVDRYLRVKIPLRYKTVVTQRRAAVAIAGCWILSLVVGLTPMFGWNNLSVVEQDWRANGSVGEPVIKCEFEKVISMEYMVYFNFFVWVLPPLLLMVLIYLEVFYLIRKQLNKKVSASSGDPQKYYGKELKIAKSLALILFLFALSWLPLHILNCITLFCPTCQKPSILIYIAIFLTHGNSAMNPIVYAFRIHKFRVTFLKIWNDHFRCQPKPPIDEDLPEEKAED
# Adenosine receptor A3 [3] = target: T3, Adenosine receptor A3 (Homo sapiens, UniProt P0DMS8); assay: Binding affinity at human Adenosine A3 receptor expressed in HEK 293 cells by [125I]AB-MECA displacement.; format: cell-based, HEK293
# T3 sequence (P0DMS8 whole entry): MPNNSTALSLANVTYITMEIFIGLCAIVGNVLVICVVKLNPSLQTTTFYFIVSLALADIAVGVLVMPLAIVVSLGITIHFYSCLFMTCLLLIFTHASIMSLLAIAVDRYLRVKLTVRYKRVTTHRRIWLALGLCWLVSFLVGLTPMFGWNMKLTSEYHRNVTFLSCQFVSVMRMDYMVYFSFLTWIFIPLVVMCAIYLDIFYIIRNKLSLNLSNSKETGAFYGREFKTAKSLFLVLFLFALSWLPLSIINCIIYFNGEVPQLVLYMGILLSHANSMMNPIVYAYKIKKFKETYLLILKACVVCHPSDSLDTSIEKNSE
# [4] = target: T4, Adenosine receptor A3 (Homo sapiens) (UniProt P0DMS8); assay: Percentage of [35S]GTP-gamma-S, binding to the human adenosine A3 receptor stimulated at 10E-4 M; format: functional
# T4 sequence (whole entry): T3 sequence (P0DMS8 whole entry)
# Adenosine receptor A3 [5] = target: T3, Adenosine receptor A3; assay: Displacement of [125I]AB-MECA from human Adenosine A3 receptor expressed in HEK 293 cells; format: cell-based, HEK293
# [6] = target: T5, Adenosine receptor A1 (Rattus norvegicus) (UniProt P25099); assay: Percentage displacement of [3H]DPCPX from rat cortical membranes Adenosine A1 receptor at 10 uM; format: cell membranes; settings: Membrane
# T5 sequence (whole entry): T2 sequence (P25099 whole entry)
# [7] = target: T4, Adenosine receptor A3 (Homo sapiens); assay: Inhibition of forskolin-induced c-AMP production by adenosine A3 receptor with 10 uM NECA; format: functional
# Adenosine receptor A3 [8] = target: T3, Adenosine receptor A3; assay: Effective concentration for stimulation of [35S]GTP-gamma-S, binding to human adenosine A3 receptor; format: functional
# [9] = target: T4, Adenosine receptor A3 (Homo sapiens); assay: Inhibition of forskolin-stimulated cAMP production mediated by human adenosine A3 receptor expressed in CHO cells at 10 uM; format: functional, cell-based
# [10] = target: Adenosine receptor A2a (Rattus norvegicus) (UniProt P30543); assay: Percentage displacement of [3H]-CGS- 21680 from Adenosine A2A receptor of rat striatal membranes at 10 uM; format: cell membranes; settings: Membrane
# Adenosine receptor A2a [11] = target: T1, Adenosine receptor A2a; assay: Displacement of [3H]-CGS- […] from Adenosine A2A receptor of rat striatal membranes; format: cell membranes, Membrane
# Sequence of Adenosine receptor A2a (Rattus norvegicus) (P30543 whole entry): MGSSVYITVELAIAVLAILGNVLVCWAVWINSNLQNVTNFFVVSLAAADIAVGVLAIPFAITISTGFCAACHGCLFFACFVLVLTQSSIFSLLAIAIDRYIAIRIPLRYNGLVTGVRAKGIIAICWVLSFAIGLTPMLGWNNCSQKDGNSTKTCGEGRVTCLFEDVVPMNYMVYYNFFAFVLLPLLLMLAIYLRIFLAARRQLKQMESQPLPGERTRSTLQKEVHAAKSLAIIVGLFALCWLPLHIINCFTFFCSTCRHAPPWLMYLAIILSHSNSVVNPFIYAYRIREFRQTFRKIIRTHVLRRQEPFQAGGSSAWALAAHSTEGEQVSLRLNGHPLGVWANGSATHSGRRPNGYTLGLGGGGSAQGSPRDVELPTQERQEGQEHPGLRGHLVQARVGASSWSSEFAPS
# T1 sequence (P30543 whole entry): as above
Structure (SMILES),Ratio [2],Ki (Adenosine receptor A3 [3]) [µM],Radioligand bound [4] [%],further results
CCCSC[C@H]1O[C@@H](n2cnc3c(NCc4ccccc4)ncnc32)[C@H](O)[C@@H]1O,8.7,0.647,7,Ki (Adenosine receptor A2a [1]): 7.99 µM; Ki (Adenosine receptor A1): 5.87 µM
CNC(=O)C[C@H]1OC(n2cnc3c(NCc4cccc(I)c4)nc(Cl)nc32)[C@@H](O)[C@H]1O (some centres undefined),–,–,–,Ki (Adenosine receptor A3 [5]): 0.00033 µM
O[C@@H]1[C@H](O)[C@@H](CCl)O[C@H]1n1cnc2c(NCc3ccccc3)ncnc21,> 5.4,1.86,13,Ki (Adenosine receptor A2a [1]): 0.641 µM; Displacement [6]: 47%
OC[C@H]1O[C@@H](n2cnc3c(NCc4ccccc4)ncnc32)[C@H](O)[C@@H]1O [N6-BENZYLADENOSINE],–,0.55,81,inhibition [7]: 94%; Ki (Adenosine receptor A2a [1]): 0.733 µM; EC50 (Adenosine receptor A3 [8]): 0.384 µM; inhibition [9]: 82%
CCCSC[C@H]1O[C@@H](n2cnc3c(NC4CCCC4)ncnc32)[C@H](O)[C@@H]1O,0.39,0.193,–,–
CNC(=O)[C@H]1OC(n2cnc3c(NCc4ccccc4)ncnc32)[C@@H](O)[C@H]1O (some centres undefined),–,0.041,–,–
CCSC[C@H]1O[C@@H](n2cnc3c(NC4CCCC4)ncnc32)[C@H](O)[C@@H]1O,0.5,0.09,–,–
O[C@H]1[C@@H](c2ccon2)OC(n2cnc3c(NCc4cccc(I)c4)nc(Cl)nc32)[C@H]1O (some centres undefined),–,0.0078,–,–
CCSC[C@H]1O[C@@H](n2cnc3c(NCc4cccc(I)c4)ncnc32)[C@H](O)[C@@H]1O,41.1,0.0175,21,Ki (Adenosine receptor A2a [1]): 1.08 µM; Ki (Adenosine receptor A1): 0.72 µM
CC(C)SC[C@H]1O[C@@H](n2cnc3c(NCc4cccc(I)c4)ncnc32)[C@H](O)[C@@H]1O,> 216,0.0463,16,Displacement [6]: 35%; Displacement [10]: 45%
CSC[C@H]1O[C@@H](n2cnc3c(NC4CCCC4)ncnc32)[C@H](O)[C@@H]1O,0.8,0.074,–,–
OC[C@H]1O[C@@H](n2cnc3c(NC4CCCC4)ncnc32)[C@H](O)[C@@H]1O [N6-CYCLOPENTYLADENOSINE],–,0.12,–,–
CSC[C@H]1O[C@@H](n2cnc3c(NCc4ccccc4)ncnc32)[C@H](O)[C@@H]1O,> 78.1,0.128,52,inhibition [7]: 93%; Displacement [6]: 31%; EC50 (Adenosine receptor A3 [8]): 0.473 µM; Displacement [10]: 25%; inhibition [9]: 60%
CC(C)SC[C@H]1O[C@@H](n2cnc3c(NC4CCCC4)ncnc32)[C@H](O)[C@@H]1O,0.3,0.137,–,Ki (Adenosine receptor A1): 0.041 µM; Ki (Adenosine receptor A2a [11]): 10.2 µM
OC[C@H]1O[C@@H](n2cnc3c(NCc4cccc(I)c4)ncnc32)[C@H](O)[C@@H]1O,–,–,56,inhibition [7]: 91%; inhibition [9]: 86%
CCSC[C@H]1O[C@@H](n2cnc3c(NCc4ccccc4)ncnc32)[C@H](O)[C@@H]1O,> 62.9,0.159,19,Displacement [6]: 29%; Displacement [10]: 38%
CCNC(=O)[C@H]1O[C@@H](n2cnc3c(N)ncnc32)[C@H](O)[C@@H]1O,–,–,100,inhibition [9]: 100%
CSC[C@H]1O[C@@H](n2cnc3c(NCc4cccc(I)c4)ncnc32)[C@H](O)[C@@H]1O,69.5,0.00878,41,inhibition [7]: 87%; Ki (Adenosine receptor A2a [1]): 1.82 µM; Ki (Adenosine receptor A1): 0.61 µM; EC50 (Adenosine receptor A3 [8]): 0.027 µM; inhibition [9]: 64%
O[C@@H]1[C@H](O)[C@@H](CCl)O[C@H]1n1cnc2c(NC3CCCC3)ncnc21,0.007,1.29,–,–
O[C@@H]1[C@H](O)[C@@H](CCl)O[C@H]1n1cnc2c(NCc3cccc(I)c3)ncnc21,1.4,0.188,8,Ki (Adenosine receptor A2a [1]): 0.457 µM; Ki (Adenosine receptor A1): 0.27 µM
CC(C)SC[C@H]1O[C@@H](n2cnc3c(NCc4ccccc4)ncnc32)[C@H](O)[C@@H]1O,> 47.4,0.211,22,Displacement [6]: 14%; Displacement [10]: 6%
COc1cccc(CNc2nc(Cl)nc3c2ncn3C2O[C@H](c3ccon3)[C@H](O)[C@@H]2O)c1 (some centres undefined),–,0.031,–,–
CCCSC[C@H]1O[C@@H](n2cnc3c(NCc4cccc(I)c4)ncnc32)[C@H](O)[C@@H]1O,> 226,0.0443,10,Displacement [6]: 42%; Displacement [10]: 42%
